# What was measured:
# Type in all cases: physicochemical
# [1] = Hygroscopicity experiment (crystal forms of salts and crystal form A of free base); settings: for weight gain after moisture absorption / hygroscopicity: RH 80%; for hygroscopicity: result in words; for crystal form transformation (XRPD pattern): after 1 cycle of moisture absorption and desorption, 0-95% relative humidity
# Text: • 2.1 Experimental objective: The hygroscopicity of different crystal forms of salts of the compound was investigated under various relative humidity conditions to provide a basis for screening and storage of the crystal forms of salts of the compound. • 2.2 Experimental scheme: The crystal forms of salts of the compound were placed in saturated water vapor at different relative humidities to reach a dynamic equilibrium between the compound and the water vapor.
# 3.1 Experimental objective: The hygroscopicity of crystal form A of free base of the compound was investigated under various relative humidity conditions to provide a basis for screening and storage of the crystal forms of the compound.
# 3.2 Experimental scheme: The crystal form A of free base of the compound was placed in saturated water vapor at different relative humidities to reach a dynamic equilibrium between the compound and the water vapor. The percentage weight gain of the compound due to moisture absorption was calculated after the equilibrium.
# [2] = Stability experiment of solid crystal form A of free base; settings: 60°C; room temperature, 92.5% RH; 50°C, RH = 75%; 5, 10, 20 and 30 days
# Protocol: 2.1 Experimental objective: To investigate the physical and chemical stability for crystal form A of free base under the conditions of a high temperature of 60°C, room temperature and a high humidity of 92.5% RH and 50°C, RH = 75% for 5, 10, 20 and 30 days and provide a basis for the storage of the compound.
# 2.2 Experimental scheme: About 2 mg of crystal form A of free base was taken and investigated under the conditions of 60°C in an oven, room temperature and a high humidity of RH = 92.5%, and 50°C, RH = 75% for 5, 10, 20 and 30 days. The content was determined by HPLC and an external standard method, and the changes of related substances were calculated by a chromatographic peak area normalization method (see 1.2.3 for the chromatographic conditions).
# [3] = Solubility experiments in different media, crystal form A of free base; settings: thermodynamic from solid
# Protocol: 4.1 Experimental objective: The solubility of the crystal form A of free base in media such as pH1 buffer, artificial simulated gastric fluid (FaSSGF), fasted-state artificial simulated intestinal fluid (FaSSIF), and fed-state artificial simulated intestinal fluid (FeSSIF) was tested to provide a basis for the evaluation of the potential of the crystal form being manufactured as a drug.
# 4.2 Experimental scheme: About 1.0 mg of crystal form A of free base was weighed into 2 mL glass vials, and pH1 buffer solution, fasted-state artificial simulated intestinal fluid (FaSSIF), fed-state artificial simulated intestinal fluid (FeSSIF), and fasted-state simulated gastric fluid (FaSSGF) (1 mL for each medium) were added to each vial, respectively. The vials were placed on a micromixer for shaking overnight with the temperature set at 37°C. After 24 h, the sample solutions were filtered through 0.45 µm nylon filter membranes, and the filtrates were collected. The concentrations were determined by an external standard method and HPLC.
# [4] = Solubility experiments in different media, crystal forms of salts; set-up: thermodynamic solubility FaSSIF / thermodynamic solubility FaSSGF / thermodynamic solubility FeSSIF: unit not given here; settings: about 2 mg suspended for 24 hours, 37°C, HPLC, external standard method
# Text: 4.1 Experimental objective: The solubility of the crystal form A of phosphate, crystal form A of hydrochloride, crystal form A of sulphate, crystal form A of citrate, crystal form A of oxalate, crystal form A of maleate and crystal form A of salicylate in media such as artificial simulated gastric fluid (FaSSGF), fasted-state artificial simulated intestinal fluid (FaSSIF), and fed-state artificial simulated intestinal fluid (FeSSIF) was compared to provide a basis for the evaluation of the potential of the crystal forms of salts being manufactured as a drug. […]
# [5] = Solid stability experiment of crystal form A of phosphate (5, 10, 20 and 30 days); settings: 60°C (GW, sealed), 50°C/75% RH (JS, unsealed), room temperature/92.5% RH (GS, unsealed)
# Protocol: • 5.1 Experimental objective: To investigate and compare the stability of the crystal form A of phosphate under the three conditions of a high temperature of 60°C (GW, sealed), 50°C/75% RH (JS, unsealed), and room temperature/92.5% RH (GS, unsealed) and provide a basis for the screening of the crystal forms of salts and the storage of the salts of the compound. • 5.2 Experimental scheme: About 2 mg of crystal form A of phosphate was weighed into 2 mL dry and clean glass vials, respectively. The vials were respectively placed under the conditions of 60°C (GW, sealed), 50°C/75% RH (JS, unsealed), and room temperature/92.5% RH (GS, unsealed) for 5, 10, 20 and 30 days. […] Therefore, the crystal form can well meet the requirements of subsequent long-term storage and formulation processes.
weight gain after moisture absorption [1],hygroscopicity [1],crystal form transformation (XRPD pattern) [1],stability [2],"solubility at 24 h ([3]; fassgf or other biorelevant, FaSSGF (simulated gastric fluid, fasted), 37°C) [µg/mL]","solubility at 24 h ([3]; pH1 buffer, simulated gastric fluid, pH 1, 37°C) [µg/mL]","solubility at 24 h ([3]; FaSSIF (simulated intestinal fluid, fasted), 37°C) [µg/mL]","solubility at 24 h ([3]; FeSSIF (simulated intestinal fluid, fed), 37°C) [µg/mL]",thermodynamic solubility FaSSGF ([4]; FaSSGF (artificial simulated gastric fluid)),thermodynamic solubility FaSSIF ([4]; FaSSIF (fasted-state artificial simulated intestinal fluid)),"solubility thermodynamic at 24 h ([4]; thermodynamic from solid, FeSSIF (fed-state artificial simulated intestinal fluid)) [µg/mL]",stability (impurity increase) [5],SMILES
about 0.1719%,weak hygroscopicity,no crystal form transformation occurred,excellent stability,8,558,10,209,–,–,–,–,"CC(C)c1c(F)cc(N2C[C@H](N(C)S(C)(=O)=O)[C@H]2C)c2cnc(Nc3ccnc(-c4cn(C)nc4Cl)n3)cc12 [crystal form A of free base, N-((2R,3S)-1-(3-((2-(3-chloro-1-methyl-1H-pyrazol-4-yl)pyrimidin-4-yl)amino)-6-fluoro-5-isopropylisoquinolin-8-yl)-2-methylazetidin-3-yl)-N-methylmethanesulphonamide]"
0.533%,weak hygroscopicity,no crystal form transformation occurred,–,–,–,–,–,0.010,0.203,1200,relatively stable,"CC(C)c1c(F)cc(N2C[C@H](N(C)S(C)(=O)=O)[C@H]2C)c2cnc(Nc3ccnc(-c4cn(C)nc4Cl)n3)cc12 [crystal form A of phosphate, N-((2R,3S)-1-(3-((2-(3-chloro-1-methyl-1H-pyrazol-4-yl)pyrimidin-4-yl)amino)-6-fluoro-5-isopropylisoquinolin-8-yl)-2-methylazetidin-3-yl)-N-methylmethanesulphonamide]"

# Reference: patent EP4778921A1, “SALT FORM AND CRYSTAL FORM OF NITROGEN-CONTAINING HETEROCYCLIC DERIVATIVE INHIBITOR, AND PREPARATION METHOD THEREFOR AND USE THEREOF” (Shanghai Hansoh Biomedical Co., Ltd., priority 2023, dated 2025)
